Experimental findings from patent US10189839B2, “Tricyclic imidazole compounds as inhibitors of tryptophan hydroxylase” (ACTELION PHARMACEUTICALS LTD, priority 2013, dated 2019) are described below.

SMILES strings stand for the structures.

One may read the IC50 as the concentration that inhibits the measured activity by half.

In the first assay the target is T1, full length human TPH1 (Homo sapiens, UniProt P17752).
T1 construct: To generate the enzyme, full length human TPH1 is cloned into the plasmid pET20b(+); made in house; host or cells: E. coli
T1 sequence (P17752 1-444): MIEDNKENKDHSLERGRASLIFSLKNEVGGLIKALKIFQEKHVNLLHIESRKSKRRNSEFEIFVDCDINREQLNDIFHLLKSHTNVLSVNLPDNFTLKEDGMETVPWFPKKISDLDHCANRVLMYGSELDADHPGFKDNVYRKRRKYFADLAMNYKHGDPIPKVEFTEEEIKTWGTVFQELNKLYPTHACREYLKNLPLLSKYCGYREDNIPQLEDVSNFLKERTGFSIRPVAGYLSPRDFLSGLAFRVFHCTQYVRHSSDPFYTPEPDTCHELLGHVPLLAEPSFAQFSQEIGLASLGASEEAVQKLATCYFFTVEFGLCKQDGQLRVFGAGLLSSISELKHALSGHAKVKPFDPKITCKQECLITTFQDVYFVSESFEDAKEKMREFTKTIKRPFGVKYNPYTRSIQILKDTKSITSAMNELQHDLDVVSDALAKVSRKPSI
Description: Biochemical in vitro assay using fluorescence readout (TPH1 enzyme activity). The note with it: Table 1, mean where determined several times. The source says: Inhibitory activities on tryptophan hydroxylase 1 have been measured for each example compound using the following procedure:
Biochemical In Vitro Assay Using Fluorescence Readout
To generate the enzyme, full length human TPH1 is cloned into the plasmid pET20b(+) (Novagen) and expressed in E. coli. The bacterial cells are ruptured by sonication on ice and the lysate is cleared by centrifugation. The resulting protein in the pellet is re-extracted and TPH1 is purified from the obtained lysate by affinity chromatography using a pterin cosubstrate analog immobilized to the resin of the column. The protein is further purified by size exclusion chromatography to remove protein aggregates. The activity of TPH1 is determined by using a fluorescence assay. The enzyme activity assay is carried out at 15° C. with atmosphere oxygen for the duration of 60 minutes in a volume of 64 μl. The reaction is carried out in a 0.1M Tris-HCl buffer, adjusted to pH 7.6, containing 1 mM DTT, 0.2 mg/ml catalase, 100 μM (±)-6-methyl-5,6,7,8-tetrahydropterine dihydrochloride, 40 μM L-tryptophan, and 40-80 nM of TPH1. The reaction is started by bringing together L-tryptophan with all the other reaction substituents and stopped by quenching with perchloric acid (HClO4). The amount of 5-hydroxy-L-tryptophan produced during the enzymatic reaction is determined by fluorescence readout. Fluorescence, as determined at 540 nm when excited at 300 nm wavelength, increases proportionally to the 5-hydroxy-L-tryptophan formed. Compounds are prepared as 10 mM stock solution in DMSO, then diluted in 384-well plates using DMSO followed by a transfer of the dilutions into the assay plate. Fluorescence is measured for each well and the fluorescence at 540 nm wavelength is compared to the fluorescence of the vehicle in place of compound. Inhibitory activities of example compounds with respect to the TPH1 protein are determined by calculating the IC50 value (the concentration of compound needed to inhibit 50% of the enzyme activity). The calculated IC50 values may fluctuate depending on the daily biochemical assay performance. Fluctuations of this kind are known to those skilled in the art. In the case where IC50 values have been determined several times for the same compound, the mean is given.
`Cc1ccc(C2c3c(nc4n3CCCC4)CCN2C(=O)COc2ccc(C(=O)N(C)C3CC3)nc2Cl)c(F)c1` (centres unmarked) [Example 1.2.3, 6-chloro-N-cyclopropyl-5-(2-(1-(2-fluoro-4-methyl-phenyl)-3,4,6,7,8,9-hexahydroimidazo[1,2-a:5,4-c′]dipyridin-2(1H)-yl)-2-oxoethoxy)-N-methylpicolinamide] displayed an IC50 of 22 nM. The same measure, in the same setting: in the case of `CS(=O)(=O)Nc1ccc(OCC(=O)N2CCc3nc4n(c3C2c2ncc(C3CC3)cc2F)CCCC4)c(Cl)n1` (centres unmarked) [Example 1.3.1, N-(6-chloro-5-(2-(1-(5-cyclopropyl-3-fluoropyridin-2-yl)-3,4,6,7,8,9-hexahydroimidazo[1,2-a:5,4-c′]dipyridin-2(1H)-yl)-2-oxoethoxy)pyridin-2-yl)methanesulfonamide] it was 63 nM; in that of `CCc1nc(C(=O)NC2CC2)ccc1OCC(=O)N1CCc2nc3n(c2C1c1ncc(C2CC2)cc1F)CCCC3` (centres unmarked) [Example 1.3.2, N-cyclopropyl-5-(2-(1-(5-cyclopropyl-3-fluoropyridin-2-yl)-3,4,6,7,8,9-hexahydroimidazo[1,2-a:5,4-c′]dipyridin-2(1H)-yl)-2-oxoethoxy)-6-ethylpicolinamide], 7 nM; in that of `CCc1nc(C(=O)NC2CC2)ccc1OCC(=O)N1CCc2nc3n(c2[C@@H]1c1ncc(C2CC2)cc1F)CCCC3` [Example 1.3.3, (R)-N-cyclopropyl-5-(2-(1-(5-cyclopropyl-3-fluoropyridin-2-yl)-3,4,6,7,8,9-hexahydroimidazo[1,2-a:5,4-c′]dipyridin-2(1H)-yl)-2-oxoethoxy)-6-ethylpicolinamide], 7 nM. `CN(C)C(=O)c1ccc(OCC(=O)N2CCc3nc4n(c3C2c2sc(C(=O)N(C)C)cc2F)CCCC4)c(Cl)n1` (centres unmarked) [Example 1.4.1, 6-chloro-5-(2-(1-(5-(dimethylcarbamoyl)-3-fluoro-thiophen-2-yl)-3,4,6,7,8,9-hexahydroimidazo[1,2-a:5,4-c′]dipyridin-2(1H)-yl)-2-oxoethoxy)-N,N-dimethyl-picolinamide] returned a half-inhibitory concentration (IC50) of 55 nM. Same read-out and setting: in the case of `CCc1nc(NS(C)(=O)=O)ccc1OCC(=O)N1CCc2nc3n(c2C1c1sc(C(=O)N(C)C)cc1F)CCCC3` (centres unmarked) [Example 1.4.2, 5-(2-(2-((2-ethyl-6-(methylsulfonamido)pyridin-3-yl)oxy)acetyl)-1,2,3,4,6,7,8,9-octahydroimidazo[1,2-a:5,4-c′]dipyridin-1-yl)-4-fluoro-N,N-dimethylthiophene-2-carboxamide] it was 38 nM; in that of `CCOC(=O)c1csc(C2c3c(nc4n3CCCC4)CCN2C(=O)COc2ccc(NS(C)(=O)=O)nc2Cl)n1` (centres unmarked) [Example 1.5.1, Ethyl 2-(2-(2-((2-chloro-6-(methylsulfonamido)pyridin-3-yl)oxy)acetyl)-1,2,3,4,6,7,8,9-octahydroimidazo[1,2-a:5,4-c′]dipyridin-1-yl)thiazole-4-carboxylate], 558 nM. Same read-out and setting: with `Cc1cnc(C2c3c(nc4n3CCCC4)CCN2C(=O)COc2ccc(NS(C)(=O)=O)nc2Cl)c(F)c1` (centres unmarked) [Example 1.6.1, N-(6-chloro-5-(2-(1-(3-fluoro-5-methylpyridin-2-yl)-3,4,6,7,8,9-hexahydroimidazo[1,2-a:5,4-c′]dipyridin-2(1H)-yl)-2-oxoethoxy)pyridin-2-yl)methanesulfonamide] the figure was 58 nM; with `Cc1cnc(C2c3c(nc4n3CCCC4)CCN2C(=O)COc2ccc(-c3ncco3)nc2Cl)c(F)c1` (centres unmarked) [Example 1.6.2, 2-((2-chloro-6-(oxazol-2-yl)pyridin-3-yl)oxy)-1-(1-(3-fluoro-5-methylpyridin-2-yl)-3,4,6,7,8,9-hexahydroimidazo[1,2-a:5,4-c′]dipyridin-2(1H)-yl)ethanone], 41 nM; with `Cc1cnc(C2c3c(nc4n3CCCC4)CCN2C(=O)COc2ccc(C(=O)N(C)C3CC3)nc2Cl)c(F)c1` (centres unmarked) [Example 1.6.3, 6-chloro-N-cyclopropyl-5-(2-(1-(3-fluoro-5-methyl-pyridin-2-yl)-3,4,6,7,8,9-hexahydroimidazo[1,2-a:5,4-c′]dipyridin-2(1H)-yl)-2-oxoethoxy)-N-methyl-picolinamide], 114 nM. With `Cc1cnc(C2c3c(nc4n3CCCC4)CCN2C(=O)COc2ccc(C(=O)N(C)C)nc2Cl)c(F)c1` (centres unmarked) [Example 1.6.4, 6-chloro-5-(2-(1-(3-fluoro-5-methylpyridin-2-yl)-3,4,6,7,8,9-hexahydroimidazo[1,2-a:5,4-c′]dipyridin-2(1H)-yl)-2-oxoethoxy)-N,N-dimethylpicolinamide], it took 33 nM to reach half-maximal inhibition (IC50). As to `Cc1cnc(C2c3c(nc4n3CCCC4)CCN2C(=O)COc2ccc(N3CCCS3(=O)=O)nc2Cl)c(F)c1` (centres unmarked) [Example 1.6.5, 2-((2-chloro-6-(1,1-dioxidoisothiazolidin-2-yl)pyridin-3-yl)oxy)-1-(1-(3-fluoro-5-methylpyridin-2-yl)-3,4,6,7,8,9-hexahydroimidazo[1,2-a:5,4-c′]dipyridin-2(1H)-yl)ethanone], the 50% inhibitory concentration (IC50) is 16 nM. Take `Cc1cnc(C2c3c(nc4n3CCCC4)CCN2C(=O)COc2ccc(N(C)S(C)(=O)=O)nc2Cl)c(F)c1` (centres unmarked) [Example 1.6.6, N-(6-chloro-5-(2-(1-(3-fluoro-5-methylpyridin-2-yl)-3,4,6,7,8,9-hexahydroimidazo[1,2-a:5,4-c′]dipyridin-2(1H)-yl)-2-oxoethoxy)pyridin-2-yl)-N-methylmethanesulfonamide]: the IC50 was determined as 44 nM. `CCc1nc(C(=O)NC2CC2)ccc1OCC(=O)N1CCc2nc3n(c2C1c1ncc(C)cc1F)CCCC3` (centres unmarked) [Example 1.6.7, N-cyclopropyl-6-ethyl-5-(2-(1-(3-fluoro-5-methylpyridin-2-yl)-3,4,6,7,8,9-hexahydroimidazo[1,2-a:5,4-c′]dipyridin-2(1H)-yl)-2-oxoethoxy)picolinamide] yielded an IC50 of 8 nM. The molecule `CN(C(=O)c1ccc(OCC(=O)N2CCc3nc4n(c3C2c2ccc(C3CC3)cc2F)CCCC4)c(Cl)n1)C1CC1` (centres unmarked) [Example 1.8.1, 6-chloro-N-cyclopropyl-5-(2-(1-(4-cyclopropyl-2-fluorophenyl)-3,4,6,7,8,9-hexahydroimidazo[1,2-a:5,4-c′]dipyridin-2(1H)-yl)-2-oxoethoxy)-N-methylpicolinamide] gave an IC50 of 20 nM. `O=C(COc1ccc(-c2ncco2)nc1Cl)N1CCc2nc3n(c2C1c1ccc(C2CC2)cc1F)CCCC3` (centres unmarked) [Example 1.8.2, 2-((2-chloro-6-(oxazol-2-yl)pyridin-3-yl)oxy)-1-(1-(4-cyclopropyl-2-fluorophenyl)-3,4,6,7,8,9-hexahydroimi-dazo[1,2-a:5,4-c′]dipyridin-2(1H)-yl)ethanone] displayed an IC50 of 17 nM. As for `CS(=O)(=O)Nc1ccc(OCC(=O)N2CCc3nc4n(c3C2c2ccc(C3CC3)cc2F)CCCC4)c(Cl)n1` (centres unmarked) [Example 1.8.3, N-(6-chloro-5-(2-(1-(4-cyclopropyl-2-fluorophenyl)-3,4,6,7,8,9-hexahydroimidazo[1,2-a:5,4-c′]dipyridin-2(1H)-yl)-2-oxoethoxy)pyridin-2-yl)methanesulfonamide], the IC50 is 22 nM.

The molecule `CN(C)C(=O)c1ccc(OCC(=O)N2CCc3nc4n(c3C2c2ccc(C3CC3)cc2F)CCCC4)c(Cl)n1` (centres unmarked) [Example 1.8.4, 6-chloro-5-(2-(1-(4-cyclopropyl-2-fluorophenyl)-3,4,6,7,8,9-hexahydroimidazo[1,2-a:5,4-c′]dipyridin-2(1H)-yl)-2-oxoethoxy)-N,N-dimethylpicolinamide] had a half-inhibitory concentration (IC50) of 11 nM.

Turning to `O=C(NC1CC1)c1ccc(OCC(=O)N2CCc3nc4n(c3C2c2ccc(C3CC3)cc2F)CCCC4)c(Cl)n1` (centres unmarked) [Example 1.8.5, 6-chloro-N-cyclopropyl-5-(2-(1-(4-cyclopropyl-2-fluorophenyl)-3,4,6,7,8,9-hexahydroimidazo[1,2-a:5,4-c′]dipyridin-2(1H)-yl)-2-oxoethoxy)picolinamide], the 50% inhibitory concentration (IC50) was 24 nM.

The same assay, now with this note: Table 2.
In turn, `CNC(=O)c1csc(C2c3c(nc4n3CCCC4)CCN2C(=O)COc2ccc(NS(C)(=O)=O)nc2Cl)n1` (centres unmarked) [Example 1.7.1, 2-(2-(2-((2-Chloro-6-(methylsulfonamido)pyridin-3-yl)oxy)acetyl)-1,2,3,4,6,7,8,9-octahydroimidazo[1,2-a:5,4-c′]dipyridin-1-yl)-N-methylthiazole-4-carboxamide] yielded an IC50 of 844 nM.
